Test [1] concerns the target T1, dopamine (DA) reuptake sites (Rattus norvegicus, UniProt P23977).
T1 construct: Striatal tissue from the brains of male Charles River rats weighing 150-250 g; from tissue; host or cells: rat brain striatum (crude synaptosomes in A1, washed membranes in A4)
The test can be described thus: inhibition of [3H]dopamine uptake in vitro, striatal synaptosomes. The test is classed as biochemical. The conditions noted are these: [3H]dopamine 2.5 nM, means of three independent determinations. As to the method: Striatal tissue from the brains of male Charles River rats weighing 150-250 g was homogenised in ice-cold 0.32M sucrose (1:10 w/v) using a motor driven teflon pestle (difference in diameter between mortar and pestle 0.5 mm). Nuclei and cell debris were removed by centrifugation at 1,500 g at 4° C. for 10 minutes. The pellet (P1) was discarded and the supernatant centrifuged at 28,000 g at 4° C. for 10 minutes. The crude synaptosomal pellet (P2) was resuspended in Krebs-Henseleit buffer (equivalent to 4.2 mg wet weight of tissue/ml).
Crude synaptosomes were incubated in a shaking water bath at 37° C. for 15 minutes. Aliquots (150 μl; equivalent to 0.625 mg wet weight of tissue/tube) were then added to tubes containing 275 μl of Krebs-Henseleit buffer and 50 μl of Krebs-Henseleit buffer (total uptake) or 50 μl of test compound (10 concentrations ranging from 10^-11 -10^-4 M or 50 μl of GBR 12909 (10^-5 M; non-specific uptake). Uptake was initiated by the addition of 25 μl of freshly prepared [^3 H]dopamine (2.5 nM), followed by vortexing and was continued for 5 minutes at 37° C. in the shaking water bath.
Uptake was terminated by filtration under vacuum through Skatron 11735 filters using a Skatron cell harvester. Filters were then washed with 8 ml ice-cold saline. The scored filter paper discs were punched into vials, scintillation fluid added and radioactivity determined by liquid scintillation counting.
(§1) For each of the dopamine (DA) uptake, 5-hydroxytryptamine (5-HT) uptake and noradrenaline (NA) uptake inhibition tests, the percentage inhibition of specific uptake of the tritiated ligand was calculated for each concentration of test compound. Inhibition curves were then produced. The concentration which gave 50% inhibition of specific uptake (IC50) was obtained from the curve. The inhibition constant (Ki) was then calculated using the formula [formula]
(§2) in which [ligand] is the concentration of tritiated ligand used and Km is the affinity of the uptake site for the ligand. […] Values are means of three independent determinations unless otherwise indicated.

The target in test [2] is T2, 5-hydroxytryptamine (5-HT) reuptake sites (Rattus norvegicus, UniProt P31652).
T2 construct: Frontal cortical tissue from the brains of male Sprague-Dawley rats; from tissue; host or cells: rat brain frontal cortex (crude synaptosomes in A2, washed membranes in A5)
The test can be described thus: inhibition of [3H]5-HT uptake in vitro, frontal cortical synaptosomes. The test is classed as biochemical. The procedure:
Frontal cortical tissue from the brains of male Sprague-Dawley rats (Charles River; weight range 150-250 g) was homogenised in ice-cold 0.32M sucrose (1:10 w/v) using a motor driven teflon pestle (difference in diameter between mortar and pestle 0.5 mm). Nuclei and cell debris were removed by centrifugation at 1,500 g at 4° C. for 10 minutes. The pellet (P1) was discarded and the supernatant centrifuged at 28,000 g at 4° C. for 10 minutes. The crude synaptosomal pellet (P2) was resuspended in Krebs-Henseleit buffer (equivalent to 8.3 mg wet weight of tissue/ml).
Crude synaptosomes were incubated in a shaking water bath at 37° C. for 15 minutes. Aliquots (150 μl; equivalent to 1.25 mg wet weight of tissue/tube) were then added to tubes containing 275 μl of Krebs-Henseleit buffer and 50 μl of Krebs-Henseleit buffer (total uptake) or 50 μl of test compound (at 10 concentrations ranging from 10^-11 -10^-4 M) or 50 μl of zimeldine (10^-5 M; non-specific uptake). Uptake was initiated by the addition of 25 μl of freshly prepared [^3 H]5-HT (2 nM), followed by vortexing, and was continued for 5 minutes at 37° C. in the shaking water bath. Uptake was terminated by filtration under vacuum through Skatron 11734 filters using a Skatron cell harvester. Filters were then washed with 8 ml ice-cold saline. The scored filter paper discs were punched into vials, scintillation fluid added and radioactivity determined by liquid scintillation counting.
as §1, §2

Test [3] addresses T3, noradrenaline (NA) reuptake sites (Rattus norvegicus, UniProt Q63380).
T3 construct: Frontal cortical tissue from the brains of male Sprague-Dawley rats; from tissue; host or cells: rat brain frontal cortex (crude synaptosomes in A3, washed membranes in A6)
The test can be described thus: inhibition of [3H]noradrenaline uptake in vitro, frontal cortical synaptosomes. The conditions noted are these: [3H]noradrenaline 10 nM, means of three independent determinations. The test is classed as biochemical. As to the method:
Frontal cortical tissue from the brains of male Sprague-Dawley rats (Charles River; weight range 150-250 g) was homogenised in ice-cold 0.32M sucrose (1:10 w/v) using a motor driven teflon pestle (difference in diameter between mortar and pestle 0.5 mm). Nuclei and cell debris were removed by centrifugation at 1,500 g at 4° C. for 10 minutes. The pellet (P1) was discarded and the supernatant centrifuged at 28,000 g at 4° C. for 10 minutes. The crude synaptosomal pellet (P2) was resuspended in Krebs-Physiological buffer (equivalent to 16.7 mg wet weight of tissue/ml).
Crude synaptosomes were incubated in a shaking water bath at 37° C. for 15 minutes. Aliquots (150 μl; equivalent to 2.5 mg wet weight of tissue/tube) were then added to tubes containing 275 μl of Krebs-Physiological buffer and 50 μl of Krebs-Physiological buffer (total uptake) or 50 μl of test compound (at 10 concentrations ranging from […]) or 50 μl of desipramine (10^-5 M; non-specific uptake). Uptake was initiated by the addition of 25 μl of freshly prepared [^3 H]noradrenaline (10 nM), followed by vortexing and was continued for 5 minutes at 37° C. in the shaking water bath. Uptake was terminated by filtration under vacuum through Whatman GF/B filters using a Brandel cell harvester. Filters were then washed with 8 ml ice-cold saline. The scored filter paper discs were placed into vials, scintillation fluid added and radioactivity determined by liquid scintillation counting.
as §1, §2

Test [4] has as its target T1, dopamine (DA) reuptake sites. The test can be described thus: displacement of [3H]GBR 12935 from dopamine reuptake sites, striatal membranes. Type of test: binding. The conditions noted are these: 10^-6 M test compound, [3H]GBR 12935 1 nM, one test only, read-out: DA uptake (% displacement of specific binding of tritiated ligand). Put shortly: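 Rat striatal membranes (male rats, 150-250 g) incubated 90 min at 4 °C with 1 nM [3H]GBR 12935 in 50 mM Tris-HCl pH 7.4, 200 mM NaCl, 5 mM KCl; non-specific binding with 1 μM mazindol. Filtration, scintillation counting; value is % displacement of specific binding at 10^-6 M, single test; IA means <50%.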
(In general: In a radioligand displacement assay an active substance lowers the binding of a labelled ligand.)

The target in test [5] is T2, 5-hydroxytryptamine (5-HT) reuptake sites. The test can be described thus: displacement of [3H]paroxetine from 5-HT reuptake sites, frontal cortical membranes. Type of test: binding. The conditions noted are these: 10^-6 M test compound, [3H]paroxetine 30 pM, one test only, read-out: 5-HT uptake (% displacement of specific binding of tritiated ligand). A digest of the protocol:
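Rat frontal cortex membranes (male, 150-250 g; 2 mg wet tissue/tube) in 50 mM Tris-HCl pH 7.5 with 120 mM NaCl and 5 mM KCl, incubated 2 h at 22 °C with 30 pM [3H]paroxetine and compound at 10^-6 M. Citalopram 1 μM defined non-specific binding; values are % displacement of specific binding from a single test, filtration and scintillation counting.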

In test [6] the target is T3, noradrenaline (NA) reuptake sites. The test can be described thus: displacement of [3H]nisoxetine from noradrenaline reuptake sites, frontal cortical membranes. The conditions noted are these: 10^-6 M test compound, [3H]nisoxetine 0.6 nM, one test only, read-out: NA uptake (% displacement of specific binding of tritiated ligand). A digest of the protocol:
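Washed male rat frontal cortex membranes in 50 mM Tris pH 7.4, 300 mM NaCl, 5 mM KCl, incubated 4 h at 4 °C with 0.6 nM [3H]nisoxetine and test compound at 10^-6 M; mazindol (1 μM) defined non-specific binding. Filtration, scintillation counting; % displacement of specific binding, single test.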

Data on 12 molecules can be found in US6187802A, “Substituted 4-arylmethylene-2-imino-2,3-dihydrothiazoles and derivatives and their pharmaceutical use” (Knoll Aktiengesellschaft, priority 1997, dated 2001).

SMILES strings stand for the structures. Counter-ions that a name gives are not always drawn. Like-named read-outs stand apart in the source and are kept apart here.

T2 sequence (P31652 whole entry): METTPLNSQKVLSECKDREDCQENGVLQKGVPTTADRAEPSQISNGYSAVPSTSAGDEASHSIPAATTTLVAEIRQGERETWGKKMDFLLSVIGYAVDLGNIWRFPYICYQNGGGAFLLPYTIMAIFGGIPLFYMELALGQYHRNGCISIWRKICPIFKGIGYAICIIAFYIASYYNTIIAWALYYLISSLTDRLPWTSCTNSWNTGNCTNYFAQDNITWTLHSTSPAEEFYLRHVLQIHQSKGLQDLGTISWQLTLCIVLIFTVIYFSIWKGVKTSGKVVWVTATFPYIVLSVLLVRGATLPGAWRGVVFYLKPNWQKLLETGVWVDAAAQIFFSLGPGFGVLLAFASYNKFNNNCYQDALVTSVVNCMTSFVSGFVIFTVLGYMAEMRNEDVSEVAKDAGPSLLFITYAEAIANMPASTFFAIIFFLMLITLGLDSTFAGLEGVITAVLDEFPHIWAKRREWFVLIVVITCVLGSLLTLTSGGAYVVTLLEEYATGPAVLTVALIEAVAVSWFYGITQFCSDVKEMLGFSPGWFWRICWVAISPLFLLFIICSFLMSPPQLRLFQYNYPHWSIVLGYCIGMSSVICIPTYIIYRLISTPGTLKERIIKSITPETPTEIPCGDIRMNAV
T3 sequence (Q63380 1-617): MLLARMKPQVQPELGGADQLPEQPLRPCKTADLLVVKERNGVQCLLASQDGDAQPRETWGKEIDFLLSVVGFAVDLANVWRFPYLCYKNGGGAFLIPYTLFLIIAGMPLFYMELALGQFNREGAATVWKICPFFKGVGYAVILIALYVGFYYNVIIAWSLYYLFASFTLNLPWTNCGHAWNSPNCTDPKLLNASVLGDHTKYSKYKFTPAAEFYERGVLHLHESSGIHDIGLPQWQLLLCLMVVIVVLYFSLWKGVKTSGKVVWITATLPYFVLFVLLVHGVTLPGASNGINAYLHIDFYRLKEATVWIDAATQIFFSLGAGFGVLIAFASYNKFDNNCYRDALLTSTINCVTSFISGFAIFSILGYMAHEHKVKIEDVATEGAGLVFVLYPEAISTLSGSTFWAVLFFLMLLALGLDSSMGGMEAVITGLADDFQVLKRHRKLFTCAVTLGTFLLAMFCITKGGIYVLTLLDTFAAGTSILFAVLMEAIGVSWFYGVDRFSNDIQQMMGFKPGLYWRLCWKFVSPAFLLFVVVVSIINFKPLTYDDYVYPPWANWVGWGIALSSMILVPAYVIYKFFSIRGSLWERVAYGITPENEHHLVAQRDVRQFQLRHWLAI
T1 sequence (P23977 whole entry): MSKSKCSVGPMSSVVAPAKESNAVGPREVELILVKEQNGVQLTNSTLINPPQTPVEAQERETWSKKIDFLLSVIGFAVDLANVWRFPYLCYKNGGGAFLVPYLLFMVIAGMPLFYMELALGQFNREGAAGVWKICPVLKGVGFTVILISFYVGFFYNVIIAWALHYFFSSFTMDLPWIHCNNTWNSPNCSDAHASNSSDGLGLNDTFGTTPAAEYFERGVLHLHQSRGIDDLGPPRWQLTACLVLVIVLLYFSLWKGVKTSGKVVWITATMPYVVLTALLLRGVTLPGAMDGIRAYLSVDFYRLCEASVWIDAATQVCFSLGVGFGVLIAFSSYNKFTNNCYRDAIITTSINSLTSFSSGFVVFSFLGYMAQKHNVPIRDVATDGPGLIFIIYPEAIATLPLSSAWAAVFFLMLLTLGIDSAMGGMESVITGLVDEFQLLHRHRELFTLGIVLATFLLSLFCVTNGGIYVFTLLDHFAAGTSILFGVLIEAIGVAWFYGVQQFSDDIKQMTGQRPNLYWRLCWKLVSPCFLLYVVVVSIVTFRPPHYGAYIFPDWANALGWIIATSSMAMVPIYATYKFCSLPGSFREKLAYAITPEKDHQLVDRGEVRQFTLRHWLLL

As to `Clc1ccc(C2(C3=CSC4=NCCN34)CCC2)cc1Cl` [Example 1, 3-[1-(3,4-dichlorophenyl)cyclobuty]-5,6-dihydroimidazo[2,1-b]thiazole hydrobromide], the Ki (as a rule, the equilibrium dissociation constant of an inhibitor or competing ligand from its target) is 9.2 nM in test [1]; 120 nM in test [2] (rat frontal cortical synaptosomes, [3H]5-HT 2 nM, means of three independent determinations, read-out: 5-HT uptake (Ki)); 34 nM in test [3].

As for `Clc1ccc(C2(C3=CSC4=NCCN34)CCC2)cc1` [Example 3, 3-[1-(4-chlorophenyl)cyclobutyl]-5,6-dihydroimidazo-[2,1-b]thiazole hydrobromide], the results for the Ki in test [1], in test [2] and in test [3] were 79 nM, 795 nM and 22 nM, respectively.

Turning to `c1ccc2cc(C3(c4csc(=NC5CCCC5)n4C4CCCC4)CCC3)ccc2c1` [Example 53, 3-Cyclopentyl-2-cyclopentylimino-4-[1-(2-naphthyl)cyclobutyl]-2,3-dihydrothiazole hydrobromide], the inhibition at 1 µM in test [4] is 80%; in test [5] it was 71%; in test [6], less than 50%.

Take `Clc1ccc(C2(C3=CSC4=NCCCN34)CCC2)cc1` [Example 2, 3-[1-(4-chlorophenyl)cyclobutyl]-6,7-dihydro-5H-thiazolo[3,2-a]pyrimidine hydrobromide]: the values for the Ki in test [1], in test [2] and in test [3] were 104 nM, 782 nM and 261 nM, respectively.

`c1ccc(CN=c2scc(C3(c4ccc5ccccc5c4)CCC3)n2Cc2ccccc2)cc1` [Example 44, 3-Benzyl-2-benzylimino-4-[1-(2-naphthyl)cyclobutyl]-2,3-dihydrothiazole hydrobromide]: the inhibition at 1 µM in test [4] is 96%; in test [5] it was 72%; in test [6] it was less than 50%.

For `Clc1ccc(C2(c3csc(=NCCc4ccccc4)n3CCc3ccccc3)CCC2)cc1Cl` [Example 24, 4-[1-(3,4-Dichlorophenyl)cyclobutyl]-3-phenethyl-2-phenethylimino-2,3-dihydrothiazole hydrobromide], the inhibition at 1 µM in test [4] was 90%; in test [5], less than 50%; in test [6], less than 50%.

In the case of `C1=C(C2(c3ccccc3)CCCCC2)N2CCN=C2S1` [Example 72, 3-(1-Phenylcyclohexyl)-5,6-dihydroimidazo[2,1-b]thiazole hydrobromide], the inhibition at 1 µM in test [4] was 70%; in test [5], less than 50%; in test [6], less than 50%.

As to `Clc1ccc(C2(C3=CSC4=NCCCN34)CCC2)cc1Cl` [Example 4, 3-[1-(3,4-dichlorophenyl)cyclobutyl]-6,7-dihydro-5H-thiazolo[3,2-a]pyrimidine hydrobromide], the Ki was 9.5 nM in test [1], 137 nM in test [2] and 15 nM in test [3].

`COc1ccc(CCN=c2scc(C3(c4ccccc4)CCCCC3)n2CCc2ccc(OC)c(OC)c2)cc1OC` [Example 68, 3-(3,4-Dimethoxyphenethyl)-2-(3,4-dimethoxyphenethylimino)-4-(1-phenylcyclohexyl)-2,3-dihydrothiazole hydrobromide]: the inhibition at 1 µM in test [4] is 65%; in test [5] it was less than 50%; in test [6], less than 50%.

`CCCCN=c1scc(C(C)(C)c2ccc(Cl)cc2)n1CCCC` [Example 62, 3-Butyl-2-butylimino-4-[1-(4-chlorophenyl)-1-methylethyl]-2,3-dihydrothiazole hydrobromide]: the inhibition at 1 µM in test [4] is 55%; in test [5] it was less than 50%; in test [6] it was less than 50%.

As for `Cc1ccccc1N=c1scc(C2(c3ccc(Cl)c(Cl)c3)CCC2)n1-c1ccccc1C` [Example 29, 4-[1-(3,4-Dichlorophenyl)cyclobutyl]-3-(o-tolyl)-2-(o-tolylimino)-2,3-dihydrothiazole hydrobromide], the inhibition at 1 µM in test [4] is 74%; in test [5] it was less than 50%; in test [6], less than 50%.

Consider `C1=C(C2(c3ccc4ccccc4c3)CCC2)N2CCN=C2S1` [Example 5, 3-[1-(2-naphthyl)cyclobutyl]-5,6-dihydroimidazo[2,1-b]thiazole hydrobromide], for which the figures for the Ki in test [1], in test [2] and in test [3] were 5.9 nM, 25 nM and 4.4 nM, respectively.
